In patent US20240335424A1, “COMPOSITIONS AND METHODS FOR TREATING LIPOMA PAIN” (Raziel Therapeutics Ltd., priority 2021, published 2024):
Entries after “also recorded” stand apart in the source; their conditions may differ.

Columns and labels:
Assay type in all cases: in vivo, human
[1] = Phase 2b clinical trial: safety (adverse events, vital signs, clinical laboratory, ECG); conditions: up to 200 mg/subject, subcutaneous injection into lipomas
Text: The clinical trial described herein was a double-blind, randomized, placebo-controlled phase 2b clinical trial for the evaluation of safety and efficacy of Compound 1 (5-(3,6-dibromo-9H-carbazol-9-yl)-N,N,N-trimethylpentan-1-aminium, provided as a chloride salt, also designated Compound 1A), in subjects having Dercum's disease (DD) lipomas.
Study Objectives. The primary objective was to evaluate the average percent reduction in lipoma height on day 84 after injection vs. baseline in the treatment group compared to the placebo group. Efficacy was determined by ultrasound assessment of the lipoma/nodule dimensions after treatment vs. baseline. The key secondary objective was assessment of lipoma/nodule associated pain using the Comparative Pain Scale. Safety was assessed by frequency of adverse events and by change-from-baseline values for vital signs, clinical laboratory and ECG.
Study Design. This was a double blind, multi-center, randomized, placebo-controlled clinical trial in DD subjects having lipomas. A total of 38 DD patients were enrolled into the study. Patients were randomized in approximately a 1:1 ratio into either the intervention or the placebo arm. Twenty (20) subjects, having a total of 125 lipomas, were treated with Compound 1. Eighteen (18) subjects, having a total of 110 lipomas, were treated with placebo. Once the study ended and codes were opened, 84 days after dosing.
At least 4 lipomas/nodules, preferably 6, and no more than 8, were injected per subject. Compound 1 dose per injection site was 5 mg, and a distance of 1-3 cm between injection points was maintained, to allow good distribution of Compound 1 within lipoma fat. A maximal dose of up to 240 mg/subject (a total of 48 injections of 5 mg/injection) was allowed in this study and the highest actual tested dose was 200 mg/subject (40 injections into 4-8 lipomas). A total of 20 patients were treated with Compound 1 and a total of 18 patients were treated with placebo.

[2] = system: Dercum's disease (DD) lipomas; assay: Phase 2b clinical trial: lipoma/nodule height by ultrasound; conditions: day 84 after injection vs. baseline, compared to placebo
Text: The clinical trial described herein was a double-blind, randomized, placebo-controlled phase 2b clinical trial for the evaluation of safety and efficacy of Compound 1 (5-(3,6-dibromo-9H-carbazol-9-yl)-N,N,N-trimethylpentan-1-aminium, provided as a chloride salt, also designated Compound 1A), in subjects having Dercum's disease (DD) lipomas. Study Objectives. The primary objective was to evaluate the average percent reduction in lipoma height on day 84 after injection vs. baseline in the treatment group compared to the placebo group. Efficacy was determined by ultrasound assessment of the lipoma/nodule dimensions after treatment vs. baseline. The key secondary objective was assessment of lipoma/nodule associated pain using the Comparative Pain Scale. Safety was assessed by frequency of adverse events and by change-from-baseline values for vital signs, clinical laboratory and ECG. Study Design. […] Dosing was calculated according to lipoma size (diameter) as determined by ultrasound. […] Primary endpoint was the average percent reduction in lipoma/noduleheight on day 84 after injection vs baseline-evaluated by ultrasound in the Compound 1 treatment group compared to the placebo group. Key secondary endpoint was reduction in local pain score per lipoma/nodule on Day 84 vs. baseline as measured by the Comparative Pain Scale. […]

[3] = system: Dercum's disease (DD) lipomas; assay: Phase 2b clinical trial: lipoma pain by Comparative Pain Scale; conditions: for Pain Score: Average per patient, Mean / Pain score: All lipomas, Mean: Comparative Pain Scale 0-10; for Pain score: All lipomas, Mean / Change from baseline in Pain Score: All lipomas, Relative Change from baseline, Mean: per lipoma analysis
Text: The clinical trial described herein was a double-blind, randomized, placebo-controlled phase 2b clinical trial for the evaluation of safety and efficacy of Compound 1 (5-(3,6-dibromo-9H-carbazol-9-yl)-N,N,N-trimethylpentan-1-aminium, provided as a chloride salt, also designated Compound 1A), in subjects having Dercum's disease (DD) lipomas. Study Objectives. The primary objective was to evaluate the average percent reduction in lipoma height on day 84 after injection vs. baseline in the treatment group compared to the placebo group. Efficacy was determined by ultrasound assessment of the lipoma/nodule dimensions after treatment vs. baseline. The key secondary objective was assessment of lipoma/nodule associated pain using the Comparative Pain Scale. Safety was assessed by frequency of adverse events and by change-from-baseline values for vital signs, clinical laboratory and ECG. Study Design. This was a double blind, multi-center, randomized, placebo-controlled clinical trial in DD subjects having lipomas. A total of 38 DD patients were enrolled into the study. Patients were randomized in approximately a 1:1 ratio into either the intervention or the placebo arm. Twenty (20) subjects, having a total of 125 lipomas, were treated with Compound 1. Eighteen (18) subjects, having a total of 110 lipomas, were treated with placebo. Once the study ended and codes were opened, 84 days after dosing. Subjects received their study treatment on a single occasion in multiple injections. Dosing was calculated according to lipoma size (diameter) as determined by ultrasound. Subjects were dosed in accordance with Table 1. Injections were perpendicular (90°) to injected skin surface and spread randomly, at least 1 cm apart. At least 4 lipomas/nodules, preferably 6, and no more than 8, were injected per subject. Compound 1 dose per injection site was 5 mg, and a distance of 1-3 cm between injection points was maintained, to allow good distribution of Compound 1 within lipoma fat. A maximal dose of up to 240 mg/subject (a total of 48 injections of 5 mg/injection) was allowed in this study and the highest actual tested dose was 200 mg/subject (40 injections into 4-8 lipomas). A total of 20 patients were treated with Compound 1 and a total of 18 patients were treated with placebo. Primary endpoint was the average percent reduction in lipoma/noduleheight on day 84 after injection vs baseline-evaluated by ultrasound in the Compound 1 treatment group compared to the placebo group. Key secondary endpoint was reduction in local pain score per lipoma/nodule on Day 84 vs. baseline as measured by the Comparative Pain Scale. Comparative pain scale ranked the pain from a score from 0 to 10. A score of 0 indicated no pain, a score of 1-3 indicated minor pain, a score of 4-6 indicated moderate pain and a score of 7-10 indicated severe pain. Pain was compared between the intervention (Compound 1) and placebo groups on 2 levels-(1) on the patient level and (2) by lipomas, i.e. comparison between all injected lipomas before and after injection. Study Drug. Compound 1 was administered as a ready to use liquid for injection into subcutaneous fat, supplied in a 1 vial kit. Each vial contains 250 mg Compound 1/5 mL (50 mg/ml) solution Compound 1 in a vehicle comprised of water, propylene glycol and surfactant. The formulation is described in Table 2. Placebo was a solution comprised of vehicle only. Each injection of Compound 1 and placebo contained 0.1 ml. The vehicle was a ready-to-use liquid for injection into subcutaneous fat, supplied in a 1-vial kit. One vial contained 5 mL and had similar composition as the Compound 1 drug product, without the active substance. The components are: Tween-80, propylene glycol, benzyl alcohol, and water. The vehicle was manufactured and packed by […] (Israel) and complies with cGMP requirements. […]

[4] = Day 84, compared to the placebo group
[5] = Visit 2 - Baseline/Treatment (Day 0), prior to injection
[6] = Visit 5 - Day 28 post treatment
[7] = Visit 6 - Day 56 post treatment
[8] = Visit 7 - Day 84 post treatment

C[N+](C)(C)CCCCCn1c2ccc(Br)cc2c2cc(Br)ccc21 [Compound 1, 5-(3,6-dibromo-9H-carbazol-9-yl)-N,N,N-trimethylpentan-1-aminium]
adverse events, kind [1]: mostly injection site edema pain and pruritus
changes in blood parameters [1]: no clinically significant changes in blood parameters
serious adverse events [1]: no reported serious adverse events
tolerability [1]: generally well tolerated
reduction in lipoma height [2]: not significant
average pain reduction per patient (by-patient analysis) ([3]; 84 days after treatment, vs. 36.82% in placebo, P=0.98 as printed): 56.37%
average pain reduction per lipoma (all-lipoma analysis) ([3]; 84 days after treatment, vs. 37.50% in placebo, p=0.0004 t-test, p 0.079 mixed model): 59.06%
reduction in pain vs. placebo, by-lipoma analysis [3, 4]: significant reduction in pain per lipoma; also recorded: statistically significant reduction in pain
reduction of pain vs. placebo, per-patient analysis [3, 4]: a trend for reduction of pain
Pain Score: Average per patient, Mean [3, 5]: 4.89
Pain score: All lipomas, Mean [3, 5]: 4.86
Change from baseline in Pain Score: Average per patient, Relative Change from baseline, Mean [3, 6]: −41.76%
Pain Score: Average per patient, Mean [3, 6]: 2.82
Pain score: All lipomas, Mean [3, 6]: 2.72
Change from baseline in Pain Score: All lipomas, Relative Change from baseline, Mean [3, 6]: −41.55%
Change from baseline in Pain Score: Average per patient, Relative Change from baseline, Mean [3, 7]: −43.53%
Pain Score: Average per patient, Mean [3, 7]: 2.56
Pain score: All lipomas, Mean [3, 7]: 2.38
Change from baseline in Pain Score: All lipomas, Relative Change from baseline, Mean [3, 7]: −46.74%
Change from baseline in Pain Score: Average per patient, Relative Change from baseline, Mean [3, 8]: −56.37%
Pain Score: Average per patient, Mean [3, 8]: 2.03
Pain score: All lipomas, Mean [3, 8]: 1.86
Change from baseline in Pain Score: All lipomas, Relative Change from baseline, Mean [3, 8]: −59.06%
effect of a single dose injected into lipomas on lipoma-associated pain ([3]; single dose, via a single injection or multiple injections): significantly alleviates lipoma-associated pain
